{
  "source": "patent US7892755B2",
  "about": "“Screening method” (Takeda Pharmaceutical Company Limited, priority 2004, dated 2011)",
  "key": {"mouse GPR35": {"target": "T1, mouse GPR35 (Mus musculus, UniProt Q9ES90, D300Y/S286F)", "T1 construct": "the digestion product was inserted into plasmid vector pAKKO-111H; expressed in transfected cells; host or cells: CHO-K1 cells", "T1 sequence (Q9ES90 whole entry S286F/D300Y)": "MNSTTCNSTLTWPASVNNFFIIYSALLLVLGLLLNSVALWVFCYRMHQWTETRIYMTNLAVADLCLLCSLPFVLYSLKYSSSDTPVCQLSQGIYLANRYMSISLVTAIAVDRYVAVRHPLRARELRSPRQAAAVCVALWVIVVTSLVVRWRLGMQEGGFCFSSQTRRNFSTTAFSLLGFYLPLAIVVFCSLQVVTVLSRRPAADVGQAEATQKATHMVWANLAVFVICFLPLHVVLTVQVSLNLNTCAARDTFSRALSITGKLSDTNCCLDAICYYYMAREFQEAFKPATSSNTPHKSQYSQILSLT", "assay": "Reactivity on FLIPR, CHO-K1 cells transfected with mouse GPR35 expression vector", "type": "cell-based", "protocol": "The CHO-K1 cell line (purchased from ATCC) was incubated in HAM F-12 medium (Invitrogen) supplemented with 10% fetal calf serum, unless otherwise indicated. On the day before transfection, the cells were inoculated at 4.5×10^5/10 cm^2 and incubated at 37° C. for 15 hours or more in a CO2 incubator adjusted to 5% CO2 concentration. Using Lipofectamine reagent (Invitrogen), transfection was performed according to modifications of the procedure attached to the reagent. When a 6-well plate was used as the incubator, the transfection was performed as follows. Two tubes each having a 1.5 ml volume were prepared and 100 μl each of Opti-MEM medium (Invitrogen) was dispensed in each tube. […] The cells obtained were counted and diluted to 5×10^4 cells per 100 μl of the medium. […]\nTo assay the changes in intracellular calcium levels on FLIPR, the following pretreatment was made. First, an assay buffer was prepared to add fluorescence dye Fluo-3AM (DOJIN) to the cells, or to wash the cells immediately before the FLIPR assay. […] After mixing them, the mixture was added to 10.6 ml of an assay buffer supplemented with 105 μl of fetal calf serum to give a fluorescence dye solution. […]"}, "GPR35": {"target": "GPR35 (Homo sapiens, UniProt Q9HC97, S294R)", "sequence (Q9HC97 whole entry S294R)": "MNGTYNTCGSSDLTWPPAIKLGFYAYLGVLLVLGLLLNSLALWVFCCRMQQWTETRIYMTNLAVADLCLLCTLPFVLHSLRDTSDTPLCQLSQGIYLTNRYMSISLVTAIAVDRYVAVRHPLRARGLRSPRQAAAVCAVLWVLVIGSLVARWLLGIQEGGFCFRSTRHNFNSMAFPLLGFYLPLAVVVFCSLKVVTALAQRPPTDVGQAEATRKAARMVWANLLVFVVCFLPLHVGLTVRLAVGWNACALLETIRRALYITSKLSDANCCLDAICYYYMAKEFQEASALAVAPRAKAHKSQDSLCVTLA", "assay": "Changes in intracellular calcium levels on FLIPR, CHO cell line stably co-expressing human GPR35 and Gα16", "type": "cell-based", "parameters": "expressed in transfected cells", "protocol": "The Gα16-stably expressed cell line (Gα16/CHO cell line) as a host cell was prepared by transfecting the Gα16 expression vector (Guthrie cDNA Resource Center) into CHO cells in a conventional manner and incubating at 37° C. under 5% CO2 in αMEM medium (containing nucleic acid; Invitrogen) supplemented with 10% fetal calf serum (Invitrogen), 50 units/ml penicillin/50 ug/ml streptomycin (CAMBREX) and 1 mg/ml geneticin (Invitrogen). The cells that were incubated for 2 days in αMEM medium (containing nucleic acid) supplemented only with 10% fetal calf serum charged in a 75 cm^2 flask were used for the transfection. The transfection was carried out using Lipofectamine reagent (Invitrogen) by a modification of the protocol attached to the reagent. First, 2 centrifuge tubes each having a 15 ml volume were prepared and 600 μl each of Opti-MEM medium (Invitrogen) was dispensed in each tube. Next, 4.8 μg of the expression vector was charged in one tube and in another tube 36 μl of Lipofectamine reagent was charged, which were mixed together. The mixture was settled for 20 minutes at room temperature. […] The cells obtained were counted and diluted with αMEM medium (containing no nucleic acid; Invitrogen) supplemented only with 10% dialyzed fetal calf serum to have 0.3, 1.5 and 7.5 cells per 100 μl of the medium. […]"}},
  "data": [
    {"compound": "O=C1N=c2cc([N+](=O)[O-])c([N+](=O)[O-])cc2=NC1=O", "note": "[DNQX, 6,7-dinitroquinoxaline-2,3-dione]", "values": [
      {"measurement": "reactivity of mouse GPR35 (FLIPR)", "setting": "mouse GPR35", "result": "responsive"},
      {"measurement": "intracellular calcium levels", "setting": "GPR35", "result": "increased"}
    ]}
  ]
}
